Source: patent publication US11414663B2, “Micro-RNA profiling, compositions, and methods of treating diseases” (GOWEY RESEARCH GROUP, PLLC, priority 2010, dated 2022)

System: miRNA
Experiment: Pre and post microRNA profiles of patients after spine injections of rate limiters
Type: in vivo, human
Conditions: for Impact on genome using spine injections: spine injections in patients, pre vs post miRNA profiles

SMILES: N[C@@H](CS)C(=O)O [Cysteine]
- Impact on genome using spine injections: Increases ail miRNA

SMILES: N[C@@H](CCC(=O)N[C@@H](CS)C(=O)NCC(=O)O)C(=O)O [Glutathione]
- Impact on genome using spine injections: Decrease all miRNA

SMILES: [Mg+2] [Magnesium]
- Impact on genome using spine injections: Increases all miRNA

SMILES: [Se] [Selenium]
- Impact on genome using spine injections: Increases ail miRNA

SMILES: [Zn] [Zinc]
- Impact on genome using spine injections: Decrease all miRNA except miR-486
- miR-486 level, pre-treatment vs post-treatment profile (spine injections, all other miRNA levels lowered): miR-486 had increased
